Target: T1, sigma-2 receptor (S2R) (Homo sapiens, UniProt Q5BJF2)
T1 construct: gene TMEM97
Test: radioligand displacement ([3H]-ditolylguanidine, […], with […] (+)pentazocine to mask S1R)
Format: binding

T1 sequence (Q5BJF2 whole entry): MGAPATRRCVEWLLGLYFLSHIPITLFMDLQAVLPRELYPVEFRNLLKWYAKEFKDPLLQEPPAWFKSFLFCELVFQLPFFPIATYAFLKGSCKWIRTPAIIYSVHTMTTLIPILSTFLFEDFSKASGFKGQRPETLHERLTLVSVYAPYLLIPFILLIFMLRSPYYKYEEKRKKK

pKi S2R ^a ± SD: 7.00 ± 0.11 pKi
Structure (SMILES): O=C(CCCCCNc1ccc([N+](=O)[O-])c2nonc12)Oc1ccc(CC2CCN(CC3CSC4(CCCCC4)S3)CC2)cc1 (stereo not shown) [BS148-fluo, 4-((1-((1,4-dithiaspiro[4.5]decane-2-yl)methyl)piperidin-4-yl)methyl)phenyl-6-((7-nitrobenzo[c][1,2,5]oxadiazol-4-yl)amino)hexanoate]
